Holding throughout (assay): DTP human tumour cell line panel, 48 h
The test system of assay [1] is 786-0.
Assay [2] concerns COLO 205.
Assay [3] relates to EKVX.
The test system of assay [4] is HT-29.
Assay [5] relates to IGROV-1.
Assay [6] deals with K562.
For assay [7], the system named is KM12.
Assay [8] deals with M14.
Assay [9] has as its system MDA-MB-435.
For assay [10], the system named is MDA-N.
Assay [11] has as its system MOLT-4.
Assay [12] relates to NCI/ADR-RES.
For assay [13], the system named is OVCAR-3.
In assay [14] the test system is PC-3.
Assay [15] has as its system SF-295.
The subject of assay [16] is SK-MEL-28.
Assay [17] relates to SK-MEL-2.
Assay [18] concerns SK-OV-3.
Assay [19] relates to SN12C.
Assay [20] relates to U-251.

As usually defined, the GI50 is the concentration giving 50% growth inhibition.

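1) Cells in 96-well plates. 2) Compound, 48 h, 5 concentrations. 3) Linear interpolation between surrounding doses. 4) Unreached endpoint = highest concentration. Here, GI50 denotes the concentration required for 50% inhibition of growth.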 The source made the active and inactive calls. No stated cut-off is given here; in the data, active = GI50 up to about 1.1 µM and inactive = higher.

On to `C/C=C(\C)c1cc(=O)c2c(C)cc3c(c2o1)C(=O)c1c(O)c(C2CC(C)(N(C)C)C(OC(C)=O)C(C)O2)cc(C2CC(N(C)C)C(O)C(C)O2)c1C3=O` (stereo not given), for which the GI50 is 0.358 µM (active) in assay [1]; 0.621 µM (active) in assay [2]; 1.12 µM (active) in assay [3]; 0.324 µM (active) in [4]; 0.8 µM (active) in [5]; 0.652 µM (active) in assay [6]. In addition, the GI50 was 1.12 µM (active) in [7]; 0.748 µM (active) in assay [8]; 1.03 µM (active) in [9]; 1.18 µM (inactive) in [10]; 0.372 µM (active) in assay [11]; 1.41 µM (inactive) in assay [12]. In addition, the GI50 is 2.13 µM (inactive) in assay [13]; 1.35 µM (inactive) in [14]; 1.06 µM (active) in assay [15]; 1.91 µM (inactive) in assay [16]; 1.22 µM (inactive) in assay [17]; 1.95 µM (inactive) in assay [18]. For the same molecule, the GI50 in [19] was 0.817 µM (active); in assay [20] it was 0.49 µM (active).
Regarding `Clc1cc2ncn(C3CCCO3)c2cc1Cl` (stereo not given), the GI50 was > 100 µM (inactive) in assay [1]; > 100 µM (inactive) in assay [2]; 27.5 µM (inactive) in assay [3]; 68.4 µM (inactive) in [4]; 17.3 µM (inactive) in assay [5]; 96.2 µM (inactive) in [6]. In addition, the GI50 in assay [7] was 28.9 µM (inactive); in assay [8], > 100 µM (inactive); in [9], > 100 µM (inactive); in assay [10], > 100 µM (inactive); in [11], 54 µM (inactive); in assay [12] it was 99.8 µM (inactive). The GI50 in assay [13] was 49.8 µM (inactive); in [14], 48.2 µM (inactive); in [15], > 100 µM (inactive); in [16] it was > 100 µM (inactive); in assay [17], > 100 µM (inactive); in assay [18], > 100 µM (inactive). The figures for the GI50 in [19] and in assay [20] were > 100 µM (inactive) and 69.7 µM (inactive), respectively.
As for `CC(C)(C)OC(=O)CC(NC(=O)OC(C)(C)C)C(=O)Oc1ccc([N+](=O)[O-])cc1` (stereo not given), the GI50 in assay [1], in assay [2], in [3], in assay [4], in assay [5] and in assay [6] was > 100 µM (inactive) throughout. Besides, the GI50 in assay [7], in assay [8], in [9], in assay [10], in assay [11] and in [12] was > 100 µM (inactive) throughout. Also, the GI50 in [13] was > 100 µM (inactive); in assay [14] it was > 100 µM (inactive); in assay [15], > 100 µM (inactive); in [16], > 100 µM (inactive); in [17] it was > 100 µM (inactive); in assay [18] it was 29.9 µM (inactive). The GI50 in [19] and in [20] was > 100 µM (inactive) each time.
On to `COC(=O)c1ccc2c(O)c(O)ccc2c1`, for which the GI50 in assay [1] is 15.6 µM (inactive); in assay [2], 13.6 µM (inactive); in assay [3] it was 22.8 µM (inactive); in assay [4], 17.1 µM (inactive); in [5], 17.2 µM (inactive); in [6] it was 2.36 µM (inactive). Moreover, the GI50 is 17.1 µM (inactive) in [7]; 16.4 µM (inactive) in assay [8]; 1.87 µM (inactive) in assay [9]; 1.74 µM (inactive) in [10]; 4.81 µM (inactive) in [11]; 20.1 µM (inactive) in [12]. The GI50 is 7 µM (inactive) in assay [13]; 5.6 µM (inactive) in assay [14]; 6.98 µM (inactive) in assay [15]; 16.3 µM (inactive) in assay [16]; 1.18 µM (inactive) in assay [17]; 18.1 µM (inactive) in assay [18]. The GI50 was 9.14 µM (inactive) in assay [19] and 14.4 µM (inactive) in assay [20].
Consider `COc1cc(C2c3cccc4cccc(c34)C3CCC(=O)N32)cc(O)c1O` (stereo not given), for which the GI50 in assay [1] was 44.2 µM (inactive); in [2], > 50 µM (inactive); in assay [3] it was 26.7 µM (inactive); in [4], 48.1 µM (inactive); in assay [5] it was 26.9 µM (inactive); in [6] it was 10.8 µM (inactive). Further, the GI50 in assay [7] was > 50 µM (inactive); in assay [8] it was 43.7 µM (inactive); in assay [9] it was 19.2 µM (inactive); in assay [10], 22.3 µM (inactive); in [11], 12.7 µM (inactive); in assay [12], 37.7 µM (inactive). The GI50 in assay [13] is 18.1 µM (inactive); in assay [14], 34.4 µM (inactive); in assay [15] it was 39.9 µM (inactive); in assay [16], 33.5 µM (inactive); in [17], > 50 µM (inactive); in [18] it was > 50 µM (inactive). The GI50 in assay [19] was 41 µM (inactive); in assay [20], 19 µM (inactive).
`CCCCNC(=O)c1cc2c(cc1Cl)Sc1nccn1S2(=O)=O`: the GI50 in assay [1] is 55.6 µM (inactive); in assay [2], 60.7 µM (inactive); in [3], 70.8 µM (inactive); in assay [4], > 100 µM (inactive); in [5], > 100 µM (inactive); in assay [6], 78.5 µM (inactive). Also, the GI50 in assay [7] was > 100 µM (inactive); in assay [8] it was > 100 µM (inactive); in assay [9], 87.1 µM (inactive); in [10], 61.4 µM (inactive); in assay [11], 79.6 µM (inactive); in assay [12], 79.6 µM (inactive). Moreover, the GI50 was 34 µM (inactive) in assay [13]; 55.2 µM (inactive) in [14]; > 100 µM (inactive) in assay [15]; > 100 µM (inactive) in assay [16]; 70 µM (inactive) in assay [17]; > 100 µM (inactive) in assay [18]. The results for the GI50 in assay [19] and in [20] were > 100 µM (inactive) and 54.8 µM (inactive), respectively.
Regarding `CSc1c(C#N)c(O)nc(N)c1C(=O)Nc1ccc(Cl)cc1`, the GI50 was 7.36 µM (inactive) in assay [1]; 10.6 µM (inactive) in assay [2]; 14.9 µM (inactive) in assay [3]; 22.2 µM (inactive) in [4]; 23.2 µM (inactive) in assay [5]; 4.54 µM (inactive) in assay [6]. The GI50 in assay [7] is 7.96 µM (inactive); in [8], 5.2 µM (inactive); in [9], 3.55 µM (inactive); in assay [10], 12 µM (inactive); in assay [11], 18.8 µM (inactive); in [12] it was 17.4 µM (inactive). In addition, the GI50 in assay [13] is 14.9 µM (inactive); in assay [14], 13.2 µM (inactive); in assay [15] it was 11 µM (inactive); in assay [16], 14.7 µM (inactive); in [17], 6.25 µM (inactive); in [18], 23.3 µM (inactive). The GI50 in [19] is 23.8 µM (inactive); in [20], 19.5 µM (inactive).
For the molecule `CCc1c(CN)c(CC)c(CNC2=NCCN2)c(CC)c1CNC1=NCCN1`, the GI50 in assay [1], in assay [2], in [3], in assay [4], in assay [5] and in assay [6] was > 100 µM (inactive) throughout. Besides, the GI50 in [7], in [8], in assay [9], in [10], in assay [11] and in assay [12] was > 100 µM (inactive) each time. Moreover, the GI50 in assay [13], in assay [14], in assay [15], in assay [16], in assay [17] and in assay [18] was > 100 µM (inactive) throughout. In addition, the GI50 in assay [19] and in assay [20] was > 100 µM (inactive) throughout.
`CC1(C)CCCC2CC2CCC(C)(C)C1=O` (stereo not given): the GI50 in [1] is 28.8 µM (inactive); in [2], 18.5 µM (inactive); in assay [3], 57.9 µM (inactive); in assay [4], 44.7 µM (inactive); in assay [5] it was > 100 µM (inactive); in assay [6], 17.8 µM (inactive). Moreover, the GI50 is 56.2 µM (inactive) in assay [7]; 42 µM (inactive) in assay [8]; 39.5 µM (inactive) in [9]; 29.5 µM (inactive) in assay [10]; 29.2 µM (inactive) in [11]; 28.8 µM (inactive) in [12]. The GI50 in assay [13] is 25.5 µM (inactive); in [14], 51.1 µM (inactive); in assay [15], > 100 µM (inactive); in [16], > 100 µM (inactive); in assay [17], 31.8 µM (inactive); in assay [18], > 100 µM (inactive). Further, the GI50 in assay [19] is 71 µM (inactive); in assay [20], 19.1 µM (inactive).
On to `CCCCCCCCCCCCCCCCCCNc1nc(=O)n(C2CC(O)C(COP(=O)(O)OCC(COP(=O)(O)OC3C(CO)OC(n4ccc(N)nc4=O)C3O)OCCCCCCCCCCCCCCCCCC)O2)cc1F` (stereo not given), for which the GI50 in assay [1] is 14.8 µM (inactive); in assay [2], 16.7 µM (inactive); in assay [3] it was > 100 µM (inactive); in [4], 79.1 µM (inactive); in assay [5] it was 46.8 µM (inactive); in [6], 22.9 µM (inactive). Besides, the GI50 was > 100 µM (inactive) in assay [7]; 31.7 µM (inactive) in assay [8]; > 100 µM (inactive) in [9]; > 100 µM (inactive) in assay [10]; 0.675 µM (active) in assay [11]; > 100 µM (inactive) in [12]. For the same molecule, the GI50 in [13] was > 100 µM (inactive); in assay [14] it was 13.2 µM (inactive); in [15] it was > 100 µM (inactive); in assay [16], 69.7 µM (inactive); in [17] it was > 100 µM (inactive); in [18] it was 99.3 µM (inactive). Moreover, the GI50 is > 100 µM (inactive) in assay [19] and 13.3 µM (inactive) in assay [20].

These data come from ChEMBL document CHEMBL1201862, “PubChem BioAssay data set” (2004).
